Data as given in article PMC4503722, “Novel Phenotypic Outcomes Identified for a Public Collection of Approved Drugs from a Publicly Accessible Panel of Assays” (PLoS ONE, 2015).
Where two headings read alike, the source gives them in different places.

Legend:
Assay in all cases: cells
SW480 = format: cell-based
DLD-1 = format: cell-based
RKO = format: cell-based
NCI-H716 cells = format: cell-based, Human
Colo320 = format: cell-based
[1] = tested on: HCT116 cells treated with a GSK3β inhibitor; format: cell-based
HCT116 = format: cell-based
HeLa cells = format: cell-based; settings: read-out: CellCycle G2/M
INS-1E cells = format: cell-based, rat
[2] = tested on: endothelial tube formation in co-cultures of ECFCs and ADSCs treated with VEGF; format: cell-based, human
SNU-C1 = format: cell-based
HT-29 = format: cell-based
[3] = tested on: nuclear β-catenin in C2C12 cells; format: cell-based
[4] = Homo sapiens, SW480, basal, SW480, read-out: Basal_Viability ATP SW480
[5] = Homo sapiens, DLD-1, basal, DLD-1, read-out: Basal_Viability ATP DLD-1
[6] = Homo sapiens; basal; RKO; read-out: Basal_Viability ATP RKO
[7] = Homo sapiens, NCI-H716; read-out: GLP 1 Secretion
[8] = Homo sapiens; basal; Colo 320; read-out: Basal_Viability ATP Colo 320
[9] = Homo sapiens, HCT-116, read-out: GSK3b inh pretreated_Viability ATP HCT116
[10] = Homo sapiens, HCT-116, basal, HCT116, read-out: Basal_Viability ATP HCT116
[11] = Homo sapiens, HeLa, S2 Table, HeLa, 20 = no response at highest concentration
[12] = Rattus norvegicus, INS-1E; read-out: Insulin Secretion
[13] = Homo sapiens, SNU-C1, basal, SNU-C1, read-out: Basal_Viability ATP SNU-C1
[14] = Homo sapiens; basal; HT-29; read-out: Basal_Viability ATP HT-29
[15] = Mus musculus, C2C12, S2 Table; module primary assay; 20 / 20.1 codes per legend; read-out: Wnt Pathway
[16] = Homo sapiens, RKO, read-out: Basal_Viability ATP RKO
[17] = Homo sapiens, COLO 320, read-out: Basal_Viability ATP Colo 320
[18] = Homo sapiens, HCT-116, HCT116 pretreated with GSK3b inhibitor, read-out: GSK3b inh pretreated_Viability ATP HCT116

Structure (SMILES): CCCCOC(=O)c1ccc(N)cc1 [Butyl aminobenzoate]
- IC50 (SW480; [4]): 0.586 µM
- IC50 (DLD-1; [5]): 4.56 µM
- IC50 (RKO; [6]): 0.137 µM
- EC50 (NCI-H716 cells; [7]): > 10 µM
- IC50 (Colo320; [8]): > 20 µM
- IC50 [1, 9]: 5.61 µM
- IC50 (HCT116; [10]): > 20 µM
- EC50 (HeLa cells; [11]): > 10 µM
- EC50 (INS-1E cells; [12]): > 10 µM
- IC50 ([2]; Homo sapiens, S2 Table; module primary assay; 20 = no response at highest concentration, 20.1 = inactive in single concentration testing; read-out: Anti-Angiogenesis): > 10 µM
- IC50 (SNU-C1; [13]): > 20 µM
- IC50 (HT-29; [14]): > 20 µM
- EC50 [3, 15]: > 10 µM

Structure (SMILES): CCC(COC(=O)c1cc(OC)c(OC)c(OC)c1)(c1ccccc1)N(C)C (centres unmarked)
- IC50 (SW480; read-out: Basal_Viability ATP SW480): > 20 µM
- IC50 (DLD-1; read-out: Basal_Viability ATP DLD-1): > 20 µM
- IC50 (RKO; read-out: Basal_Viability ATP RKO): 0.142 µM
- EC50 (NCI-H716 cells; read-out: GLP 1 Secretion): > 10 µM
- IC50 (Colo320; read-out: Basal_Viability ATP Colo 320): > 20 µM
- IC50 ([1]; read-out: GSK3b inh pretreated_Viability ATP HCT116): 1.61 µM
- IC50 (HCT116; read-out: Basal_Viability ATP HCT116): > 20 µM
- EC50 (HeLa cells): > 10 µM
- EC50 (INS-1E cells; read-out: Insulin Secretion): > 10 µM
- IC50 ([2]; read-out: Anti-Angiogenesis): > 10 µM
- IC50 (SNU-C1; read-out: Basal_Viability ATP SNU-C1): 2.45 µM
- IC50 (HT-29; read-out: Basal_Viability ATP HT-29): > 20 µM
- EC50 ([3]; read-out: Wnt Pathway): > 10 µM

Structure (SMILES): CC(=O)[O][Hg][c]1ccccc1 [Mercury, (acetato-o)phenyl-]
- IC50 (SW480; basal, SW480, read-out: Basal_Viability ATP SW480): 0.543 µM
- IC50 (DLD-1; basal, DLD-1, read-out: Basal_Viability ATP DLD-1): 0.736 µM
- IC50 (RKO; basal; RKO; read-out: Basal_Viability ATP RKO): 1.2 µM
- EC50 (NCI-H716 cells; read-out: GLP 1 Secretion): 0.713 µM
- IC50 (Colo320; basal; Colo 320; read-out: Basal_Viability ATP Colo 320): 1.3 µM
- IC50 ([1]; HCT116 pretreated with GSK3b inhibitor, read-out: GSK3b inh pretreated_Viability ATP HCT116): 0.36 µM
- IC50 (HCT116; basal, HCT116, read-out: Basal_Viability ATP HCT116): 2.8 µM
- EC50 (INS-1E cells; S2 Table; module primary assay; 20 / 20.1 codes per legend; read-out: Insulin Secretion): > 10 µM
- IC50 ([2]; read-out: Anti-Angiogenesis): 0.53 µM
- IC50 (SNU-C1; basal, SNU-C1, read-out: Basal_Viability ATP SNU-C1): 0.192 µM
- IC50 (HT-29; basal; HT-29; read-out: Basal_Viability ATP HT-29): 0.799 µM
- EC50 ([3]; S2 Table; module primary assay; 20 / 20.1 codes per legend; read-out: Wnt Pathway): > 10 µM

Structure (SMILES): O=C(Nc1ccc(Oc2ccc(Cl)cc2)c(Cl)c1)c1cc(I)cc(I)c1O [Rafoxanide]
- IC50 (SW480; Homo sapiens, SW480, basal, read-out: Basal_Viability ATP SW480): 0.0108 µM
- IC50 (DLD-1; Homo sapiens, DLD-1, basal, read-out: Basal_Viability ATP DLD-1): 0.0084 µM
- IC50 (RKO; Homo sapiens, RKO; read-out: Basal_Viability ATP RKO): 0.0303 µM
- EC50 (NCI-H716 cells; Homo sapiens; IC50 / EC50; NCI-H716; read-out: GLP 1 Secretion): 1.3 µM
- IC50 (Colo320; Homo sapiens, COLO 320; read-out: Basal_Viability ATP Colo 320): 0.054 µM
- IC50 ([1]; Homo sapiens, HCT-116, GSK3b inhibitor pretreated, read-out: GSK3b inh pretreated_Viability ATP HCT116): 0.0667 µM
- IC50 (HCT116; Homo sapiens, HCT-116, basal, read-out: Basal_Viability ATP HCT116): 0.0169 µM
- EC50 (INS-1E cells; Rattus norvegicus; IC50 / EC50; INS-1E; read-out: Insulin Secretion): > 10 µM
- IC50 ([2]; Homo sapiens, IC50 / EC50; endothelial tube area, ADSC/ECFC co-culture; read-out: Anti-Angiogenesis): > 10 µM
- IC50 (SNU-C1; Homo sapiens, SNU-C1, basal, read-out: Basal_Viability ATP SNU-C1): 0.0143 µM
- IC50 (HT-29; Homo sapiens, HT-29; read-out: Basal_Viability ATP HT-29): 0.0095 µM
- EC50 ([3]; Mus musculus, C2C12, IC50 / EC50; C2C12 beta-catenin translocation; read-out: Wnt Pathway): > 10 µM

Structure (SMILES): CN(C)c1ccc(C(=C2C=CC(=[N+](C)C)C=C2)c2ccccc2)cc1 [malachite green]
- IC50 (SW480; Homo sapiens, SW480, read-out: Basal_Viability ATP SW480): 0.00922 µM
- IC50 (DLD-1; Homo sapiens, DLD-1, read-out: Basal_Viability ATP DLD-1): 0.0218 µM
- IC50 (RKO; [16]): 0.118 µM
- EC50 (NCI-H716 cells; Homo sapiens, NCI-H716, read-out: GLP 1 Secretion): > 10 µM
- IC50 (Colo320; [17]): 0.161 µM
- IC50 [1, 9]: 0.00983 µM
- IC50 (HCT116; Homo sapiens, HCT-116, read-out: Basal_Viability ATP HCT116): 0.0179 µM
- EC50 (INS-1E cells; Rattus norvegicus, INS-1E, read-out: Insulin Secretion): > 10 µM
- IC50 ([2]; Homo sapiens, read-out: Anti-Angiogenesis): 0.0605 µM
- IC50 (SNU-C1; Homo sapiens, SNU-C1, read-out: Basal_Viability ATP SNU-C1): 0.0354 µM
- IC50 (HT-29; Homo sapiens, HT-29, read-out: Basal_Viability ATP HT-29): 0.00982 µM
- EC50 ([3]; Mus musculus, C2C12, read-out: Wnt Pathway): 0.363 µM

Structure (SMILES): Nc1nc(Cl)nc2c1ncn2[C@@H]1O[C@H](CO)[C@@H](O)[C@@H]1F [clofarabine]
- IC50 (SW480; [4]): 1.2 µM
- IC50 (DLD-1; [5]): 0.164 µM
- IC50 (RKO; [6]): 0.001 µM
- EC50 (NCI-H716 cells; [7]): > 10 µM
- IC50 (Colo320; [8]): > 20 µM
- IC50 [1, 18]: 0.001 µM
- IC50 (HCT116; [10]): 0.001 µM
- EC50 (HeLa cells; [11]): > 10 µM
- EC50 (INS-1E cells; [12]): > 10 µM
- IC50 (SNU-C1; [13]): > 20 µM
- IC50 (HT-29; [14]): > 20 µM
- EC50 [3, 15]: > 10 µM

Structure (SMILES): COP(=S)(OC)Oc1ccc(Sc2ccc(OP(=S)(OC)OC)cc2)cc1 [temephos]
- IC50 (SW480; [4]): 0.0118 µM
- IC50 (DLD-1; [5]): > 20 µM
- IC50 (RKO; [16]): 12.1 µM
- EC50 (NCI-H716 cells; [7]): > 10 µM
- IC50 (Colo320; [8]): > 20 µM
- IC50 [1, 18]: > 20 µM
- IC50 (HCT116; [10]): > 20 µM
- EC50 (INS-1E cells; [12]): > 10 µM
- IC50 ([2]; Homo sapiens; read-out: Anti-Angiogenesis): > 10 µM
- IC50 (SNU-C1; [13]): 3.03 µM
- IC50 (HT-29; [14]): > 20 µM
- EC50 [3, 15]: > 10 µM

Structure (SMILES): CC[C@@]1(O)C(=O)OCc2c1cc1n(c2=O)Cc2cc3c(CN(C)C)c(O)ccc3nc2-1 [topotecan]
- IC50 (SW480; [4]): 0.233 µM
- IC50 (DLD-1; [5]): 0.177 µM
- IC50 (RKO; [6]): 0.0342 µM
- EC50 (NCI-H716 cells; [7]): > 10 µM
- IC50 (Colo320; [17]): 9.42 µM
- IC50 [1, 18]: 0.00144 µM
- IC50 (HCT116; [10]): 0.0341 µM
- EC50 (HeLa cells; [11]): > 10 µM
- EC50 (INS-1E cells; [12]): > 10 µM
- IC50 (SNU-C1; [13]): 0.301 µM
- IC50 (HT-29; [14]): 0.0246 µM
- EC50 ([3]; Mus musculus, C2C12; read-out: Wnt Pathway): 0.0179 µM
